Measured values published in the supplement of paper PMC10307832.

Key:
Test in all cases: relative viability (nuclei count vs DMSO), 5 days (fraction); higher = more cells survive
[1] = compound: COC1=CC=C(C=C1)COC2=C(C=C(C=C2)CC3=CN=C(N=C3N)N)OC [GW-2580] + CC(=O)c1c(C)c2cnc(Nc3ccc(N4CCNCC4)cn3)nc2n(C2CCCC2)c1=O [Palbociclib] (partner 0.5 µM)
Outline: (§1)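 Nuclei were stained with Hoechst during a one-step fixation (final 0.05% Triton X-100, 1% formaldehyde, 1 ug/ml Hoechst) carried out 5 days after dosing, then counted on 4× images. The cells, lung cancer lines in 1536-well plates, had been dosed by pin tool the day after seeding with one drug alone or a fixed anchor-drug dose plus five library-drug doses (not always all listed) in √10 steps. Relative viability is the nuclei count in treated wells divided by that in vehicle wells, and each value is the median of duplicate plates.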

[2] = compound: COC1=CC=C(C=C1)COC2=C(C=C(C=C2)CC3=CN=C(N=C3N)N)OC [GW-2580] + CC(C)C[C@H](NC(=O)[C@H](Cc1ccccc1)NC(=O)c1cnccn1)B(O)O [Bortezomib] (partner 0.002 µM)
Outline: as §1

[3] = compound: COC1=CC=C(C=C1)COC2=C(C=C(C=C2)CC3=CN=C(N=C3N)N)OC [GW-2580] + C[C@]1(O)C[C@@H](c2nc(-c3ccc4ccc(-c5ccccc5)nc4c3)c3c(N)nccn32)C1 [Linsitinib] (partner 1 µM)
Outline: as §1

[4] = compound: Cc1cnc(Nc2ccc(OCCN3CCCC3)cc2)nc1Nc1cccc(S(=O)(=O)NC(C)(C)C)c1 [Fedratinib] + CC(=O)c1c(C)c2cnc(Nc3ccc(N4CCNCC4)cn3)nc2n(C2CCCC2)c1=O [Palbociclib] (partner 0.5 µM)
Outline: as §1

[5] = compound: Cc1cnc(Nc2ccc(OCCN3CCCC3)cc2)nc1Nc1cccc(S(=O)(=O)NC(C)(C)C)c1 [Fedratinib] + Cc1nc(Nc2ncc(C(=O)Nc3c(C)cccc3Cl)s2)cc(N2CCN(CCO)CC2)n1 [Dasatinib] (partner 0.075 µM)
Outline: as §1

Row | Cell Line | relative viability ([1]; first compound 0.08 µM) | relative viability ([1]; first compound 0.8 µM) | relative viability ([1]; first compound 2.53 µM) | relative viability ([1]; first compound 8 µM) | relative viability ([2]; first compound 0.08 µM) | relative viability ([2]; first compound 0.8 µM) | relative viability ([2]; first compound 2.53 µM) | relative viability ([2]; first compound 8 µM) | relative viability ([3]; first compound 0.08 µM) | relative viability ([3]; first compound 0.8 µM) | relative viability ([3]; first compound 2.53 µM) | relative viability ([3]; first compound 8 µM) | relative viability ([4]; first compound 0.1 µM) | relative viability ([4]; first compound 0.3162 µM) | relative viability ([4]; first compound 1 µM) | relative viability ([5]; first compound 0.1 µM) | relative viability ([5]; first compound 0.3162 µM) | relative viability ([5]; first compound 1 µM)
1 | HCC-827 | 0.571 | 0.531 | 0.479 | 0.467 | 0.964 | 1.12 | 1.01 | 0.952 | 0.975 | 1.03 | 1.01 | 0.961 | 0.454 | 0.485 | 0.475 | 0.249 | 0.344 | 0.298
2 | HOP-62 | 0.584 | 0.438 | 0.481 | 0.515 | 1.13 | 0.861 | 0.406 | 0.727 | 1.05 | 0.953 | 0.877 | 0.982 | 0.437 | 0.426 | 0.393 | 0.739 | 0.6 | 0.503
3 | IA-LM |  |  |  |  | 0.967 | 0.574 | 0.912 | 0.865 | 0.693 | 1.29 | 0.55 | 0.319 |  |  |  |  |  | 
4 | LC-2-ad | 0.578 | 0.549 | 0.491 | 0.45 | 1.05 | 1.08 | 0.922 | 1.08 | 0.817 | 0.874 | 0.84 | 0.786 | 0.535 | 0.486 | 0.476 | 0.702 | 0.636 | 0.266
5 | LCLC-97TM1 | 0.214 | 0.308 | 0.199 | 0.221 | 0.404 | 1.02 | 0.288 | 0.982 | 0.207 |  | 0.164 | 0.177 | 0.215 | 0.235 | 0.183 | 0.822 | 0.831 | 0.723
6 | LCLC-103H | 0.51 | 0.48 | 0.459 | 0.493 | 1.28 | 1.11 | 1.03 | 0.96 | 1.07 | 1.45 | 1.08 | 1.09 | 0.479 | 0.502 | 0.477 | 0.492 | 0.294 | 0.511
7 | LK-2 | 0.877 | 0.853 | 0.426 | 0.614 |  |  |  |  | 0.558 | 0.573 | 0.23 | 0.534 | 0.55 | 0.581 | 0.608 | 0.206 | 0.227 | 0.168
8 | LOU-NH91 | 0.516 | 0.514 | 0.505 | 0.54 | 0.522 | 0.534 | 0.468 | 0.46 | 0.956 | 0.972 | 0.877 | 1.02 | 0.573 | 0.544 | 0.543 | 0.518 | 0.518 | 0.557
9 | NCI-H358 | 0.135 | 0.147 | 0.139 | 0.15 |  |  |  |  | 0.888 | 0.849 | 0.707 | 0.684 | 0.131 | 0.0975 | 0.107 | 0.148 | 0.147 | 0.129
10 | NCI-H522 | 1.04 | 1.06 | 0.825 | 1.04 |  |  |  |  |  |  |  |  | 0.847 | 0.893 | 1.03 | 0.88 | 1.05 | 0.599
11 | NCI-H596 |  |  |  |  | 0.938 | 1.06 | 1.23 | 1.01 | 1.22 | 1.08 | 1.07 | 1 |  |  |  | 0.512 | 0.628 | 0.538
12 | NCI-H1299 |  |  |  |  | 1.02 | 0.949 | 1.07 | 0.941 | 1.09 | 0.969 | 0.952 | 0.907 |  |  |  |  |  | 
13 | NCI-H1395 | 0.594 | 0.603 | 0.57 | 0.613 |  |  |  |  | 1.07 | 1.08 | 0.97 | 0.931 | 0.599 | 0.561 | 0.493 | 0.36 | 0.45 | 0.378
14 | NCI-H1563 |  |  |  |  | 0.8 | 0.986 | 0.764 | 0.842 | 1.19 | 1.27 | 1.1 | 1.08 |  |  |  | 0.504 | 0.44 | 0.429
15 | NCI-H1623 |  |  |  |  |  |  |  |  |  |  |  |  |  |  |  | 0.339 | 0.45 | 0.408
16 | NCI-H1648 | 0.293 |  | 0.274 | 0.239 |  |  |  |  |  |  |  |  | 0.257 | 0.262 | 0.25 |  |  | 
17 | NCI-H1650 | 0.395 | 0.48 | 0.354 | 0.326 | 0.218 | 0.232 | 0.164 | 0.199 |  |  |  |  | 0.299 | 0.408 | 0.288 |  | 0.295 | 0.231
18 | NCI-H1703 |  |  |  |  | 0.307 | 0.351 | 0.532 | 0.335 | 0.879 | 1.1 | 0.712 | 0.716 |  |  |  |  |  | 
19 | NCI-H1793 | 0.412 | 0.345 | 0.28 | 0.273 |  |  |  |  | 0.93 | 0.934 | 0.814 | 0.824 | 0.316 | 0.319 | 0.313 | 0.4 | 0.348 | 0.362
20 | NCI-H1944 | 0.33 | 0.387 | 0.29 | 0.255 |  |  |  |  | 1.32 | 1.4 | 1.27 | 1.07 | 0.305 | 0.358 | 0.318 | 0.21 | 0.235 | 0.196
21 | NCI-H2170 | 0.408 | 0.451 | 0.386 | 0.373 |  |  |  |  |  |  |  |  | 0.379 | 0.363 | 0.344 | 0.566 | 0.416 | 0.339
22 | NCI-H2342 | 0.547 | 0.543 | 0.511 | 0.53 |  |  |  |  |  |  |  |  | 0.531 | 0.606 | 0.593 | 0.314 | 0.309 | 0.273
23 | SK-MES-1 | 0.36 | 0.322 | 0.281 | 0.318 |  |  |  |  | 1.12 | 1.14 | 1.01 | 1.09 | 0.339 | 0.32 | 0.271 | 0.285 | 0.427 | 0.272
24 | SW 900 | 0.593 | 0.562 | 0.593 | 0.567 |  |  |  |  |  |  |  |  | 0.547 | 0.514 | 0.47 | 0.498 | 0.51 | 0.643
